Test results: patent publication US7348316B2, “Use of an anti-endotoxin drug in the prevention and treatment of disease” (Eisai R&D Management Co., Ltd., priority 2003, dated 2008)

Tested on: endotoxin
Assay: administration of E5564 to humans / endotoxin challenge studies
Format: in vivo
From the text: We have discovered that administration of E5564 to humans in a single bolus or by intermittent infusion is effective at preventing the clinical effects of endotoxemia. […] Thus, we have discovered drug administration regimens involving single bolus or intermittent infusion, to prevent or treat endotoxemia and related conditions and disorders (e.g., sepsis) in humans.

`CCCCCC/C=C\CCCCCCCCC[C@@H](O)N[C@H]1[C@H](OCC2O[C@H](OP(=O)(O)O)[C@H](NC(=O)CC(=O)CCCCCCCCCCC)[C@@H](OCCCCCCCCCC)[C@@H]2O)O[C@H](COC)[C@@H](OP(=O)(O)O)[C@@H]1OCC[C@@H](CCCCCCC)OC` (stereo partly drawn) [Compound E5564, α-D-Glucopyranose, 3-O-decyl-2-deoxy-6-O-[2-deoxy-3-O-[(3R)-3-methoxydecyl)-6-O-methyl-2-[[(11Z)-1-oxo-11-octadecenyl)amino]-4-O-phosphono-β-D-glucopyranosyl]-2-[(1,3-dioxotetradecyl)amino]-,1-(dihydrogen phosphate)] was tested, and the “activity of the drug after cessation of administration” value (doses higher than the minimum dose found to be effective in endotoxin challenge studies) was “prolonged activity”, the “preventing the clinical effects of endotoxemia” value (humans, single bolus or intermittent infusion) was “effective” and the “activity of the drug upon cessation of administration” value (previous studies) was “decreases rapidly”. The “clearance from circulation upon cessation of administration” value (previous studies) was “not cleared from circulation”.
